According to patent US7692030B2, “Conjugates of artemisinin-related endoperoxides and hydrazone derivatives for the treatment of cancer” (University of Washington, priority 2006, dated 2010):

Experiments:
NCI-H522 = assay: NCI DTP human tumor cell line screen (SRB); assay type: cell-based; conditions: Non-Small Cell Lung Cancer, 10 μM, 48 h
Method: (§1) Representative compounds of the invention, prepared as described in EXAMPLES 1-6, were submitted to the Developmental Therapeutics Program of the United States National Cancer Institute (NCl) to screen for anti-cancer activity. The anti-cancer activities of the six compounds were tested against approximately 60 human tumor cell lines representing leukemia, melanoma, and cancers of the lung, colon, breast, ovary, kidney, prostate, and brain. The following screening methodology was provided by the NCl. […] For experimental screens, cells were inoculated into 96 well microtiter plates in 100 μL at plating densities ranging from 5,000 to 40,000 cells/well depending on the doubling time of individual cell lines. After cell inoculation, the microtiter plates were incubated at 37° C., 5% carbon dioxide, 95% air and 100% relative humidity for 24 hours prior to addition of the compounds. After 24 hours of incubation, two plates of each cell line were fixed in situ with trichloroacetic acid (TCA) to represent a measurement of the cell population for each cell line at the time of compound addition (Tz). The compounds were solubilized in dimethyl sulfoxide at 400-fold the desired final maximum test concentration and stored frozen prior to use. At the time of drug addition, frozen aliquots of the compounds thawed and diluted with complete medium containing 50 μg/ml gentamicin. Aliquots of 100 μl of these different compound dilutions were added to the appropriate microtiter wells already containing 100 μl of medium, resulting in the required final compound concentration of 10 μM. Following compound addition, the plates were incubated for an additional 48 h at 37° C., 5% carbon dioxide, 95% air, and 100% relative humidity. For adherent cells, the assay was terminated by the addition of cold TCA. Cells were fixed in situ by the gentle addition of 50 μl of cold 50% (w/v) TCA (final concentration, 10% TCA) and incubated for 60 minutes at 4° C. The supernatant was discarded, and the plates were washed five times with tap water and air dried. Sulforhodamine B (SRB) solution (100 μl) at 0.4% (w/v) in 1% acetic acid was added to each well, and plates were incubated for 10 minutes at room temperature. After staining, unbound dye was removed by washing five times with 1% acetic acid and the plates were air dried. Bound stain was subsequently solubilized with 10 mM trizma base, and the absorbance was read on an automated plate reader at a wavelength of 515 nm. For suspension cells, the methodology was the same except that the assay was terminated by fixing settled cells at the bottom of the wells by gently adding 50 μl of 80% TCA (final concentration, 16% TCA). Using the three absorbance measurements [time zero, (Tz), control growth, (C), and test growth in the presence of compound (Ti)], the percentage growth was calculated at each of the compound concentrations levels. Percentage growth inhibition was calculated with the following algorithms: [(Ti−Tz)/(C−Tz)]×100 for concentrations for which Ti>/=Tz [(Ti−Tz)/Tz]×100 for concentrations for which Ti<Tz The results of the NCl in vitro anticancer screening with six compounds against various human tumor cell lines are presented below in Tables 2-7. […] The growth percent mean, delta, and range for each compound are given below.

TK-10 = assay: NCI DTP human tumor cell line screen (SRB); assay type: cell-based; conditions: Renal Cancer, 10 μM, 48 h
Method: as §1

OVCAR-8 = assay: NCI DTP human tumor cell line screen (SRB); assay type: cell-based; conditions: Ovarian Cancer, 10 μM, 48 h
Method: as §1

NCI-H460 = assay: NCI DTP human tumor cell line screen (SRB); assay type: cell-based; conditions: Non-Small Cell Lung Cancer, 10 μM, 48 h
Method: as §1

LOX IMVI = assay: NCI DTP human tumor cell line screen (SRB); assay type: cell-based; conditions: Melanoma, 10 μM, 48 h
Method: as §1

SF-268 = assay: NCI DTP human tumor cell line screen (SRB); assay type: cell-based; conditions: CNS Cancer, 10 μM, 48 h
Method: as §1

COLO 205 = assay: NCI DTP human tumor cell line screen (SRB); assay type: cell-based; conditions: Colon Cancer, 10 μM, 48 h
Method: as §1

PC-3 = assay: NCI DTP human tumor cell line screen (SRB); assay type: cell-based; conditions: Prostate Cancer, 10 μM, 48 h
Method: as §1

M14 = assay: NCI DTP human tumor cell line screen (SRB); assay type: cell-based; conditions: Melanoma, 10 μM, 48 h
Method: as §1

NCI-H226 = assay: NCI DTP human tumor cell line screen (SRB); assay type: cell-based; conditions: Non-Small Cell Lung Cancer, 10 μM, 48 h
Method: as §1

SW-620 = assay: NCI DTP human tumor cell line screen (SRB); assay type: cell-based; conditions: Colon Cancer, 10 μM, 48 h
Method: as §1

EKVX = assay: NCI DTP human tumor cell line screen (SRB); assay type: cell-based; conditions: Non-Small Cell Lung Cancer, 10 μM, 48 h
Method: as §1

MDA-MB-435 = assay: NCI DTP human tumor cell line screen (SRB); assay type: cell-based; conditions: Breast Cancer, 10 μM, 48 h
Method: as §1

SNB-75 = assay: NCI DTP human tumor cell line screen (SRB); assay type: cell-based; conditions: CNS Cancer, 10 μM, 48 h
Method: as §1

HT29 = assay: NCI DTP human tumor cell line screen (SRB); assay type: cell-based; conditions: Colon Cancer, 10 μM, 48 h
Method: as §1

HOP-92 = assay: NCI DTP human tumor cell line screen (SRB); assay type: cell-based; conditions: Non-Small Cell Lung Cancer, 10 μM, 48 h
Method: as §1

SK-OV-3 = assay: NCI DTP human tumor cell line screen (SRB); assay type: cell-based; conditions: Ovarian Cancer, 10 μM, 48 h
Method: as §1

HCT-15 = assay: NCI DTP human tumor cell line screen (SRB); assay type: cell-based; conditions: Colon Cancer, 10 μM, 48 h
Method: as §1

CAKI-1 = assay: NCI DTP human tumor cell line screen (SRB); assay type: cell-based; conditions: Renal Cancer, 10 μM, 48 h
Method: as §1

T-47D = assay: NCI DTP human tumor cell line screen (SRB); assay type: cell-based; conditions: Breast Cancer, 10 μM, 48 h
Method: as §1

SK-MEL-28 = assay: NCI DTP human tumor cell line screen (SRB); assay type: cell-based; conditions: Melanoma, 10 μM, 48 h
Method: as §1

HL-60(TB) = assay type: cell-based, human; conditions: Leukemia, 10 μM, 48 h
Method: The human tumor cell lines of the cancer screening panel were grown in RPMI 1640 medium containing 5% fetal bovine serum and 2 mM L-glutamine. For experimental screens, cells were inoculated into 96 well microtiter plates in 100 μL at plating densities ranging from 5,000 to 40,000 cells/well depending on the doubling time of individual cell lines. After cell inoculation, the microtiter plates were incubated at 37° C., 5% carbon dioxide, 95% air and 100% relative humidity for 24 hours prior to addition of the compounds.

KM12 = assay: NCI DTP human tumor cell line screen (SRB); assay type: cell-based; conditions: Colon Cancer, 10 μM, 48 h
Method: as §1

MALME-3M = assay: NCI DTP human tumor cell line screen (SRB); assay type: cell-based; conditions: Melanoma, 10 μM, 48 h
Method: as §1

NCI-H322M = assay: NCI DTP human tumor cell line screen (SRB); assay type: cell-based; conditions: Non-Small Cell Lung Cancer, 10 μM, 48 h
Method: as §1

SMILES | Growth Percent (TK-10) [%] | Growth Percent (OVCAR-8) [%] | Growth Percent (NCI-H460) [%] | Growth Percent (LOX IMVI) [%] | Growth Percent (SF-268) [%] | Growth Percent (COLO 205) [%] | Growth Percent (PC-3) [%] | Growth Percent (NCI-H226) [%] | Growth Percent (SW-620) [%] | Growth Percent (EKVX) [%] | Growth Percent (MDA-MB-435) [%] | Growth Percent (SNB-75) [%] | Growth Percent (HT29) [%] | Growth Percent (HOP-92) [%] | Growth Percent (SK-OV-3) [%] | Growth Percent (HCT-15) [%] | Growth Percent (CAKI-1) [%] | Growth Percent (T-47D) [%] | Growth Percent (SK-MEL-28) [%] | Growth Percent (HL-60(TB)) [%] | other results
CC1CCC2C(C)C(OCc3ccc(C(=O)NN=Cc4ccccc4O)o3)OC3OC4(C)CCC1C32OO4 (stereo not shown) [ART-Furan-Sal, N′-(2-hydroxybenzylidene)-5-(dihydroxyartemisinin-methyl)-furan-2-carbohydrazide] | 40.77 | 17.07 | −26.28 | 0.03 | −0.43 | 18.60 | 28.01 | 13.93 | 13.95 | 25.37 | 25.70 | −17.31 | 22.40 | 37.02 | 14.53 | 30.86 | 17.44 | 10.28 | 16.46 | −43.79 | Growth Percent (NCI-H522): −10.76%; Growth Percent (M14): −48.54%
CC1CCC2C(C)C(OCc3ccc(C(=O)NN=Cc4ccccc4)cc3)OC3OC4(C)CCC1C32OO4 (stereo not shown) [ART-Phe-Bz, N′-(benzylidene)-4-(dihydroxyartemisinin-methyl)-phenyl carbohydrazide] | 19.78 | 26.65 | 32.58 | 8.89 | 35.30 | 17.72 | 12.32 | 29.10 | 19.48 | 16.45 | 12.48 | 0.39 | 18.46 | 2.94 | 53.03 | 16.27 | 5.53 | 11.51 | 45.74 | −49.40 | Growth Percent (NCI-H522): −9.33%; Growth Percent (KM12): 10.19%; Growth Percent (M14): 34.29%; Growth Percent (MALME-3M): 32.27%; Growth Percent (NCI-H322M): 53.20%
Cc1ncc(CO)c(C=NNC(=O)c2ccc(COC3OC4OC5(C)CCC6C(C)CCC(C3C)C46OO5)cc2)c1O (stereo not shown) [ART-Phe-Pyridoxal, N′-(5-hydroxy-3-hydroxymethyl-2-methyl-4-pyridylidene)-4-(dihydroxyartemisinin-methyl)-phenyl carbohydrazide] | 6.35 | 31.40 | −3.33 | 4.22 | 1.39 | −4.40 | 31.12 | 4.49 | 14.32 | 12.34 | 18.74 | 42.44 | 32.72 | 20.97 | −4.66 | 15.22 | −12.33 | −2.71 | −7.02 | −4.98 | Growth Percent (NCI-H522): 38.92%; Growth Percent (KM12): 17.87%; Growth Percent (MALME-3M): −17.79%; Growth Percent (NCI-H322M): 14.34%
CC1CCC2C(C)C(OCc3ccc(C(=O)NN=Cc4ccccc4O)cc3)OC3OC4(C)CCC1C32OO4 (stereo not shown) [ART-Phe-Sal, N′-(2-hydroxybenzylidene)-4-(dihydroxyartemisinin-methyl)-phenyl carbohydrazide] | 20.96 | 24.17 | 0.59 | 1.55 | 10.84 | 26.59 | 31.46 | 10.80 | 30.24 | 28.62 | 15.04 | −16.75 | 22.93 | 56.27 | 17.00 | 32.15 | 11.04 | 34.12 | 22.75 | −54.70 | Growth Percent (NCI-H522): 5.74%; Growth Percent (KM12): 23.72%; Growth Percent (M14): −37.45%; Growth Percent (MALME-3M): 16.70%; Growth Percent (NCI-H322M): 23.76%
CC1CCC2C(C)C(OCc3ccc(C(=O)NN=Cc4ccccc4O)nc3)OC3OC4(C)CCC1C32OO4 (stereo not shown) [ART-Pyr-Sal, N′-(2-hydroxybenzylidene)-5-(dihydroxyartemisinin-methyl)-2-pyridine carbohydrazide] | 31.03 | 8.81 | 0.12 | 2.20 | 12.40 | 30.63 | 21.62 | 1.83 | 26.43 | 32.52 | 30.18 | −6.97 | 29.61 | 30.70 | 11.40 | 21.89 | 18.48 | 12.21 | 29.92 | 5.22 | Growth Percent (NCI-H522): 10.19%; Growth Percent (KM12): 29.31%; Growth Percent (M14): −9.91%; Growth Percent (MALME-3M): 8.61%; Growth Percent (NCI-H322M): 31.89%
CC1CCC2C(C)C(OCCn3cc(C(=O)NN=Cc4ccccc4O)nn3)OC3OC4(C)CCC1C32OO4 (stereo not shown) [ART-Triazole-Sal, N′-(2-hydroxybenzylidene)-1-(dihydroxyartemisinin-ethyl)-1H-1,2,3-triazole-4-carbohydrazide] | 38.15 | 25.82 | 2.83 | 6.87 | 21.15 | 26.05 | 38.28 | 26.98 | 31.03 | 35.04 | 35.26 | −8.40 | 31.44 | 44.42 | 32.87 | 34.01 | 40.15 | 37.45 | 27.59 | −31.16 | Growth Percent (KM12): 29.83%; Growth Percent (M14): 3.07%; Growth Percent (MALME-3M): 42.33%; Growth Percent (NCI-H322M): 27.06%
